Laboratory results: the supplement of paper PMC10307832

Experiments:
Test in all cases: relative viability (nuclei count vs DMSO), 5 days (fraction); higher = more cells survive
Ibrutinib + Lapatinib = compound: C=CC(=O)N1CCC[C@@H](n2nc(-c3ccc(Oc4ccccc4)cc3)c3c(N)ncnc32)C1 [Ibrutinib] + CS(=O)(=O)CCNCc1ccc(-c2ccc3ncnc(Nc4ccc(OCc5cccc(F)c5)c(Cl)c4)c3c2)o1 [Lapatinib] (partner 2 µM)
Outline: (§1)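 Five library-drug doses in √10 steps were combined with a fixed anchor-drug dose, or a single drug was given alone, by pin tool to lung cancer cell lines in 1536-well plates the day after seeding. Nuclei were stained and counted after 5 days. Relative viability is the nuclei count in treated wells over that in vehicle wells, taken as the median of duplicate plates.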

BMX-IN-1 + Linsitinib = compound: C=CC(=O)Nc1cc(-n2c(=O)ccc3cnc4ccc(-c5ccc(NS(C)(=O)=O)cc5)cc4c32)ccc1C [BMX-IN-1] + C[C@]1(O)C[C@@H](c2nc(-c3ccc4ccc(-c5ccccc5)nc4c3)c3c(N)nccn32)C1 [Linsitinib] (partner 1 µM)
Outline: as §1

PAC-1 + Palbociclib = compound: C=CCc1cccc(/C=N/NC(=O)CN2CCN(Cc3ccccc3)CC2)c1O [PAC-1] + CC(=O)c1c(C)c2cnc(Nc3ccc(N4CCNCC4)cn3)nc2n(C2CCCC2)c1=O [Palbociclib] (partner 0.5 µM)
Outline: as §1

PAC-1 + Decitabine = compound: C=CCc1cccc(/C=N/NC(=O)CN2CCN(Cc3ccccc3)CC2)c1O [PAC-1] + Nc1ncn([C@H]2C[C@H](O)[C@@H](CO)O2)c(=O)n1 [Decitabine] (partner 2 µM)
Outline: as §1

Cell Line	relative viability (Ibrutinib + Lapatinib; first compound 0.005 µM)	relative viability (Ibrutinib + Lapatinib; first compound 0.01581 µM)	relative viability (Ibrutinib + Lapatinib; first compound 0.05 µM)	relative viability (Ibrutinib + Lapatinib; first compound 0.5 µM)	relative viability (BMX-IN-1 + Linsitinib; first compound 0.02 µM)	relative viability (BMX-IN-1 + Linsitinib; first compound 0.2 µM)	relative viability (BMX-IN-1 + Linsitinib; first compound 0.6325 µM)	relative viability (BMX-IN-1 + Linsitinib; first compound 2 µM)	relative viability (PAC-1 + Palbociclib; first compound 0.02 µM)	relative viability (PAC-1 + Palbociclib; first compound 0.06325 µM)	relative viability (PAC-1 + Palbociclib; first compound 0.2 µM)	relative viability (PAC-1 + Palbociclib; first compound 2 µM)	relative viability (PAC-1 + Decitabine; first compound 0.02 µM)	relative viability (PAC-1 + Decitabine; first compound 0.06325 µM)	relative viability (PAC-1 + Decitabine; first compound 0.2 µM)	relative viability (PAC-1 + Decitabine; first compound 2 µM)	relative viability (Ibrutinib + Lapatinib; first compound 0.1581 µM)
NCI-H2405	0.942	1.08	0.973	1.09	1.01	0.875	0.975	0.921	0.53	0.502	0.502	0.509	0.759	0.821	0.707	0.765	–
EBC-1	0.199	0.197	0.219	0.238	1.08	0.802	0.983	1.04	–	–	–	–	–	–	–	–	0.186
NCI-H1734	0.843	1.01	1.14	1.04	1.02	0.982	0.981	0.902	0.307	0.328	0.297	0.355	0.52	0.554	0.37	0.462	1.19
NCI-H2087	1.09	1.17	0.986	1.11	1.14	1.11	1.34	1.1	0.241	0.241	0.285	0.214	0.303	0.305	0.233	0.28	1.03
NCI-H1563	0.867	0.866	0.959	1.02	1.16	1.33	1.16	1.18	–	–	–	–	–	–	–	–	0.945
SW 900	–	–	–	–	–	–	–	–	–	0.599	0.554	0.474	–	0.393	0.478	0.378	–
A549	0.931	0.916	1.05	1.02	0.627	0.973	0.808	0.552	–	–	–	–	0.342	0.267	0.138	0.253	1.08
NCI-H1793	–	0.796	0.819	0.577	1.33	0.987	1.24	0.844	0.307	0.324	0.271	0.302	0.48	0.589	0.396	0.542	0.58
EKVX	0.178	0.215	0.216	0.179	1.14	1.17	1.13	1.02	0.389	0.385	0.308	0.388	0.216	0.315	0.378	0.319	0.191
NCI-H2126	–	0.726	0.756	0.706	0.74	0.659	0.747	0.678	0.335	0.369	0.38	0.341	0.589	0.584	0.541	0.612	0.741
NCI-H1993	0.766	0.576	0.856	0.764	0.68	0.721	–	0.636	0.647	0.656	0.757	0.646	0.737	0.58	0.595	0.541	–
EPLC-272H	–	1.05	0.877	0.704	1.19	1.35	1.42	1.01	0.279	0.28	0.293	0.268	0.369	0.39	0.342	0.324	0.68
LU99A	0.936	1.08	1.1	0.995	0.547	0.533	0.532	0.535	0.425	0.422	0.461	0.408	0.826	0.773	0.801	0.881	1.04
NCI-H1299	0.973	0.984	0.977	0.969	1.2	0.986	1.13	1.12	–	–	–	–	–	–	–	–	0.979
HCC-78	1.27	0.812	0.57	0.399	0.572	0.571	0.582	0.643	0.477	0.454	0.505	0.465	0.749	0.639	0.529	0.649	0.398
HCC-15	1.01	0.819	0.877	0.865	0.918	0.984	0.899	0.821	0.743	0.747	0.628	0.689	0.628	0.685	0.56	0.599	0.835
201T	1.04	0.983	1.08	1.02	1.13	1.02	1.04	1.01	0.347	0.346	0.37	0.363	0.854	0.85	0.836	0.861	0.968
LCLC-103H	–	–	–	–	1.12	1.06	1.09	1.14	0.482	0.489	0.503	0.438	0.725	0.784	0.71	0.736	–
RERF-LC-KJ	0.831	0.931	0.937	0.785	0.911	0.974	0.951	0.935	1.13	1.02	0.997	0.912	0.66	0.65	0.66	0.661	0.888
NCI-H1650	0.685	0.734	0.843	0.844	–	–	–	–	0.334	0.375	0.333	0.274	0.447	0.441	0.344	0.371	0.682
NCI-H1355	–	0.975	1.07	0.963	0.873	0.827	0.867	0.853	0.43	0.39	0.412	0.421	0.32	0.363	0.335	0.373	0.92
NCI-H2085	0.651	0.727	0.75	0.631	0.915	0.934	1.04	0.97	0.487	0.462	0.428	0.504	0.554	0.504	0.572	0.492	0.752
